{
  "source": "patent US20240197761A1",
  "about": "“FUCOSYLATION AND IMMUNE MODULATION IN CANCER” (H. LEE MOFFITT CANCER CENTER AND RESEARCH INSTITUTE, INC., priority 2021, published 2024)",
  "key": {"[1]": {"test_system": "HLA-DRB1 in WM793 cells", "test": "Immunofluorescent subcellular localization of HLA-DRB1", "format": "cell-based, human", "settings": "vs. vehicle (DMSO)", "from_the_text": "FIGS. 18A-18F show N-linked fucosylation of HLA-DRB1 at N48 regulates its cell surface localization and is required for tumor suppression and increased TIL abundance. (a) (upper) Amino acid sequence alignments showing conservation of predicted N- and O-linked fucosylation sites in human HLA-DRB1 (N48 and T129) and mouse H2EB1 (N46 and T147). Structural modeling of the HLA-DRB1:HLA-DM (lower left) and CD4:HLA-DRB1:TCR (lower right) complexes. Potential glycosylation sites, N48 and T129, of HLA-DR1 beta chain are shown as sticks. CD4 (cyan), HLA-DRB1 (yellow), antigen peptide (magenta), and TCR (green)(lower right). (b) HLA-DRB1 peptide fragment identified by nano-LC/MS to be fucosylated on N48, with predicted HexNAc(4)Hex(3)Fuc(1) glycan structure shown above. (c) Lectin pull down (LPD) and IB analyses of EV and V5-tagged wild-type HLA-DRB1 (WT)-, HLA-DRB1 N48G (N48G)-, and HLA-DRB1 T129A (T129A)-expressing WM793 cells. (d) DMSO- or fucosyltransferase inhibitor (FUTi)-treated WM793 cells immunofluorescently stained for endogenous HLA-DRB1, KDEL (ER marker), and DAPI (20× magnification). […]"}, "[2]": {"test_system": "TUBO (mouse BC)", "test": "TUBO breast cancer growth in immunodeficient mice ± L-fuc", "format": "in vivo", "settings": "immunodeficient NSG mice ± 500 mM L-fuc (FIG. 3A)"}, "[3]": {"test_system": "4T1 mouse breast tumor", "test": "4T1 mouse breast tumor growth ± L-fucose supplemented water", "format": "in vivo, Balb/C mice", "settings": "500 mM L-fucose supplemented water ad libitum from 100 mm^3 (FIG. 3H)", "protocol": "To determine which immune cell populations were affected by L-fucose, another mouse melanoma model treated with control or L-fucose-supplemented water was used. […] Rather than being immunosuppressive, these cells elicit immunostimulatory activity (at this point in terms of augmenting T cell activation) (FIG. 3). […] In fact, upon reaching 100 mm^3, 4T1 mouse breast tumor-bearing Balb/C mice were provided with control or 500 mM L-fucose supplemented water ad libitum and L-fucose suppressed tumor growth by 50% (FIG. 3H). Moreover, the number of TILs increased following administration of L-fucose (FIG. 3C). We next looked at the specific populations of cells proliferating in TILs following L-fucose administration. We saw a 3.1 fold increase in MDSC cell and CD4 T cells (FIG. 3D). To verify that the increases in the TIL populations were attributed to fucosylation, we treated mice with L-fucose or 2FF (fucosylation inhibitor) and observed the change in MDSC. We observed that L-fucose increased MDSC populations, but 2FF decreased MDSC (FIG. 3E). […] This shift is depicted in FIG. 4."}},
  "data": [
    {"smiles": "CC(=O)OC1O[C@@H](C)[C@@H](OC(C)=O)[C@@H](OC(C)=O)[C@@H]1F", "note": "(stereo partly drawn) [FUTi, 2F-peracteyl-fucose, reference compound]", "values": [
      {"measurement": "subcellular localization of HLA-DRB1", "setting": "[1]", "result": "dimmer, more central, endoplasmic reticulum-co-localization of HLA-DRB1"}
    ]},
    {"smiles": "C[C@H](O)[C@@H](O)[C@@H](O)[C@H](O)C=O", "note": "[L-fucose]", "values": [
      {"measurement": "TUBO tumor growth", "setting": "[2]", "result": "not effected"},
      {"measurement": "suppression of tumor growth", "setting": "[3]", "result": 50, "unit": "%"}
    ]}
  ]
}
